In PMC10748408 (Frontiers in Oncology, 2023):
pIC50: −log10 of the molar value. Marks after values point to notes of the source that are not given here.

Experiments:
tumor-bearing mice = experiment: Hematological parameters of tumor-bearing mice treated with ART; format: in vivo, BALB/c mice; settings: 7 days
4T1 cells = experiment: Cell viability assay (MTT); format: cell-based, murine; settings: Mus musculus, 24 hours
Protocol: (§1) Human triple negative breast cancer cells MDA-MB-231 and murine mammary cancer cells 4T1 were obtained from National Centre for Cell Sciences, Pune, India. Cells were maintained in complete Dulbecco’s Modified Eagle Medium (DMEM) supplemented with 10% FBS and 1% penicillin/streptomycin, and incubated at 37°C in 5% CO2 - 95% humidified atmosphere. Cells in log phase of growth was used for all subsequent experiments ([21]). 1 x 10^5 viable cells were seeded in a 96-well plate. […] Following treatment, wells were washed to remove the media and 100 µl of PBS was added to each well. Finally, 10 µl of MTT solution (5 mg/mL in PBS) was added and incubated at 37°C for 3 hours. The purple crystals formed were dissolved in 150 µl of DMSO. Absorbance was measured at 570 nm in a multi-plate reader Varioskan™ Lux (Thermo Fisher Scientific, USA; [21]).

MDA-MB-231 cells [1] = experiment: Cell viability assay (MTT); format: cell-based; settings: Homo sapiens, 24 hours
Protocol: as §1

MDA-MB-231 cells [2] = experiment: Apoptotic cells (Annexin-FITC/PI flow cytometry) with or without CLEC12A overexpression; format: cell-based, Human; settings: MDA-MB-231, non-transfected, ART + (5 µM, 24 hours); without ART 0.5%
Protocol: Cells, isolated from normal and treated/untreated tumor tissues by collagenase-hyaluronidase digestion, were washed with Ca^2+-free PBS and stained with Annexin V binding buffer (1X). The cells were then incubated with Annexin V-FITC and propidium iodide (PI) for 15 minutes at 37°C. Cells were eventually analyzed on the BD FACS Aria III (Alexa Fluor at 488nm and PE at 570 nm, respectively). The percentage of apoptotic and necrotic cells were analyzed using the […]™ software (BD Biosciences, USA; [37]). For transfection, MDA-MB-231 and 4T1 cells were grown in a 6-well plate until they reached 70% confluency. CLEC12A-pcDNA recombinant/empty DNA plasmid (2500ng) or pcDNA empty vector (2500ng) was transfected into cells using 5μl Lipofectamine® 2000 reagent. […] Finally, transfection efficiency was confirmed by western blot analysis ([42]).

CLEC12A = experiment: Western blot of CLEC12A in tumor tissues; format: in vivo, BALB/c mice; settings: ART treatment, dose-dependent
Protocol: Normal and tumor tissues were homogenized in ice-cold radioimmunoprecipitation assay (RIPA) buffer containing a protease inhibitor cocktail. Proteins were resolved by 10% sodium dodecyl sulphate-polyacrylamide gel electrophoresis (SDS-PAGE), transferred onto polyvinylidene difluoride (PVDF) membranes, blocked with 5% fat-free milk and incubated with primary antibodies (1:1000 dilution) overnight at 4°C. Blots were subsequently washed and incubated with respective secondary antibodies, tagged with horseradish peroxidase. Protein expression was detected using enhanced chemiluminescence (ECL) kit ([37]). Blots were analyzed using the Gel Doc XR and band intensity quantified using ImageJ software (NIH, USA).

tumor cells = experiment: Autophagic cells (acridine orange, flow cytometry) in cells isolated from tumors; format: in vivo, BALB/c mice; settings: tumor-bearing mice, T+6.25 to T+50 mg/kg, vs Tumor
Protocol: Acidic vesicular organelles (AVOs) were examined by microscopy and quantified using flow cytometry of acridine orange (AO) stained cells. Cells were isolated from tissues by collagenase-hyaluronidase digestion and stained with AO (1µg/ml) by incubation at 37°C for 15 minutes in dark. Following subsequent PBS washes, the cells were observed under Olympus laser-scanning confocal microscope (FV-10 ASW 3.0 viewer image browser) at 450 and 593 nm to determine AVOs.

C[C@@H]1CC[C@H]2[C@@H](C)C(=O)O[C@@H]3O[C@@]4(C)CC[C@@H]1[C@]32OO4 [ART, Artemisinin]
Differential Count % B (Basophils) (tumor-bearing mice; ART 6.25 mg/kg body wt i.p.): 0% | Differential Count % E (Eosinophils) (tumor-bearing mice; ART 6.25 mg/kg body wt i.p.): 0% | Differential Count % L (Lymphocyte) (tumor-bearing mice; ART 6.25 mg/kg body wt i.p.): 36± 2.5% | Differential Count % M (Monocytes) (tumor-bearing mice; ART 6.25 mg/kg body wt i.p.): 1% | Differential Count % N (Neutrophils) (tumor-bearing mice; ART 6.25 mg/kg body wt i.p.): 63± 1.4% | Hb (tumor-bearing mice; ART 6.25 mg/kg body wt i.p.): 10.1 ± 0.42 g/dL | Total RBC (tumor-bearing mice; ART 6.25 mg/kg body wt i.p.): 5.1± 0.1 10^6 cells/mm^3 | Total WBC (tumor-bearing mice; ART 6.25 mg/kg body wt i.p.): 16.8± 0.8** 10^3 cells/mm^3 | Differential Count % B (Basophils) (tumor-bearing mice; ART 12.5 mg/kg body wt i.p.): 0% | Differential Count % E (Eosinophils) (tumor-bearing mice; ART 12.5 mg/kg body wt i.p.): 0% | Differential Count % L (Lymphocyte) (tumor-bearing mice; ART 12.5 mg/kg body wt i.p.): 51± 2.6 % | Differential Count % M (Monocytes) (tumor-bearing mice; ART 12.5 mg/kg body wt i.p.): 1% | Differential Count % N (Neutrophils) (tumor-bearing mice; ART 12.5 mg/kg body wt i.p.): 48± 2.6 % | Hb (tumor-bearing mice; ART 12.5 mg/kg body wt i.p.): 13.7 ± 0.33 g/dL | Total RBC (tumor-bearing mice; ART 12.5 mg/kg body wt i.p.): 6.3± 0.29^* 10^6 cells/mm^3 | Total WBC (tumor-bearing mice; ART 12.5 mg/kg body wt i.p.): 10.2± 1.16^*** 10^3 cells/mm^3 | Differential Count % B (Basophils) (tumor-bearing mice; ART 25 mg/kg body wt i.p.): 0% | Differential Count % E (Eosinophils) (tumor-bearing mice; ART 25 mg/kg body wt i.p.): 0% | Differential Count % L (Lymphocyte) (tumor-bearing mice; ART 25 mg/kg body wt i.p.): 53± 2.1 % | Differential Count % M (Monocytes) (tumor-bearing mice; ART 25 mg/kg body wt i.p.): 1% | Differential Count % N (Neutrophils) (tumor-bearing mice; ART 25 mg/kg body wt i.p.): 46± 1.3 % | Hb (tumor-bearing mice; ART 25 mg/kg body wt i.p.): 14.2 ± 0.21 g/dL | Total RBC (tumor-bearing mice; ART 25 mg/kg body wt i.p.): 6.7± 0.14^* 10^6 cells/mm^3 | Total WBC (tumor-bearing mice; ART 25 mg/kg body wt i.p.): 9.3± 1.8^*** 10^3 cells/mm^3 | Differential Count % B (Basophils) (tumor-bearing mice; ART 50 mg/kg body wt i.p.): 0% | Differential Count % E (Eosinophils) (tumor-bearing mice; ART 50 mg/kg body wt i.p.): 0% | Differential Count % L (Lymphocyte) (tumor-bearing mice; ART 50 mg/kg body wt i.p.): 57± 1.2 % | Differential Count % M (Monocytes) (tumor-bearing mice; ART 50 mg/kg body wt i.p.): 2% | Differential Count % N (Neutrophils) (tumor-bearing mice; ART 50 mg/kg body wt i.p.): 41± 1.5 % | Hb (tumor-bearing mice; ART 50 mg/kg body wt i.p.): 14.6 ± 0.61 g/dL | Total RBC (tumor-bearing mice; ART 50 mg/kg body wt i.p.): 7.6± 0.67^* 10^6 cells/mm^3 | Total WBC (tumor-bearing mice; ART 50 mg/kg body wt i.p.): 9.1± 1.23^*** 10^3 cells/mm^3 | pIC50 (4T1 cells): 6.00 | pIC50 (MDA-MB-231 cells [1]): 5.30 | percentage of apoptotic cells (MDA-MB-231 cells [2]): 22% | expression of CLEC12A (CLEC12A): reduced | percentage of autophagic cells (tumor cells): dose-dependent decrease
